The record followed here is paper PMC7570625, “Design and Synthesis of a Novel NIR Celecoxib-Based Fluorescent Probe for Cyclooxygenase-2 Targeted Bioimaging in Tumor Cells” (Molecules, 2020).

In this experiment the target is T1, COX-2 (Homo sapiens, UniProt P35354).
T1 construct: gene PTGS2
T1 sequence (P35354 18-604): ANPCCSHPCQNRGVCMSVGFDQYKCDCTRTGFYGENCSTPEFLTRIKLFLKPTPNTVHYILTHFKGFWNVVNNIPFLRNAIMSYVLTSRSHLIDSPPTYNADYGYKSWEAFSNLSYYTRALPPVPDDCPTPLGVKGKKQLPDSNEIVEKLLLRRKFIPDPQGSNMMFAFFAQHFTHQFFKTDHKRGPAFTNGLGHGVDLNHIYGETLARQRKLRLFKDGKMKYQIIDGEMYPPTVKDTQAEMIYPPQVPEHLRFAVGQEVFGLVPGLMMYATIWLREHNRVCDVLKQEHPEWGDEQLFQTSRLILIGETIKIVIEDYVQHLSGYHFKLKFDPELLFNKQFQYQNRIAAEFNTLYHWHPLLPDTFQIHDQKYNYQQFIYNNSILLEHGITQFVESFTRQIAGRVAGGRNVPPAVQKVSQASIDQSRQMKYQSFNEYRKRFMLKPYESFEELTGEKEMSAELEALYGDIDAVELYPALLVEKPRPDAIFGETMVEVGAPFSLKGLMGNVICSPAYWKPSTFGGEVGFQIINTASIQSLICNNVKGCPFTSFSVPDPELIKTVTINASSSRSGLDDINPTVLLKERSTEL
Kind of experiment: recombinant human COX-2 inhibition, PGE2 measured by UPLC-MS/MS. Type of experiment: biochemical.

In general, IC50 refers to the concentration needed to halve the response being measured. In the case of `Cc1ccc(-c2cc(CNC(=O)CCCCC[N+]3=C(/C=C/C=C/C=C4/N(C)c5ccccc5C4(C)C)C(C)(C)c4ccccc43)nn2-c2ccc(S(N)(=O)=O)cc2)cc1` [CCY-5], the 50% inhibitory concentration (IC50) is 1570 nM.
